# Values quoted from earlier work in PubChem BioAssay AID1259409 (Chemical Carcinogenesis Research Information System (CCRIS), 2018).
# System: rodent chemically induced tumor inhibition, incidence and multiplicity
# Test: CCRIS tumor inhibitor studies
# Conditions: Carcinogen: N-NITROSOBIS(2-HYDROXYPROPYL)AMINE, 53609-64-6, Dose [Inhibitor]: 0, 10000 PPM IN DIET FOR 27 WK BEGINNING 9 WK POST CARCINOGEN TREATMENT (STUDY DURATION: 37 WK), Route [Inhibitor]: ORAL, Species: RAT, Strain/Sex: F344/FEMALE, Dose [Carcinogen]: 2000 MG/KG BW 1 WK POST BILATERAL OVARIECTOMY, Promoter: SULFADIMETHOXINE, 122-11-2
compound,measurement,setting,value
CC(C)(c1ccc(O)cc1)c1ccc(O)cc1,outcome,Target Tissue: Type of Lesion: THYROID GLAND: ADENOMA,"0/12 (0%), 0/15 (0%), 0%, not significant"
same,"tumour outcome (control, treated, inhibition, significance)",Target Tissue: Type of Lesion: THYROID GLAND: CARCINOMA,"10/12 (83%), 4/15 (27%), 67%, p<0.01"
